Measured values published in patent US20110038885A1, “CHEMOKINE ANALOGS” (priority 2007, published 2011).
pEC50: −log10 of the molar value. Bridge positions count the residues as written; N and C are the ends. Square brackets hold non-standard residues; d marks the D form. Peptide text beside a SMILES is read from it. * marks the point of attachment. Lauroyl = CCCCCCCCCCCC(=O)*; X1 = O=C(CN1CCN(CCO)CC1)*; Octanoyl = CCCCCCCC(=O)*; Butyryl = CCCC(=O)*

What was measured:
MCP-1 = assay: In vitro chemotaxis (trans-well migration) v MCP-1; assay type: cell-based, human
Procedure, shortened: (§1)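 Trans-well migration toward IL-8 or MCP-1 placed below, with agent added to THP-1 cells (10^4-10^6) in the top well and incubation at 37° C (e.g. 4 hours). MTT absorbance at 595 nm, interpolated on a cell standard curve, gives migrated cell numbers; TGFβ-type negative control and cytotoxicity check included.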

IL-8 = assay: In vitro chemotaxis, inhibition v IL-8; assay type: cell-based, human; parameters: concentration or dose not given beside the values
Procedure, shortened: as §1

Half-life in rat in vivo = details: for half-life: read-out: T ½ rat in vivo
[1] = Half-life in rat plasma in vitro; assay type: in vitro ADME; details: read-out: T ½ rat plasma in vitro (converted)

SMILES	pEC50 (MCP-1)	v IL-8 inhibition (%) (IL-8)	half-life (Half-life in rat in vivo) [min]	half-life [1] [min]	T ½ rat in vivo (Half-life in rat in vivo) [min]
CCCCCCCCCCCC(=O)NCCCC[C@H](NC(C)=O)C(=O)N[C@H]1CSSC[C@@H](C(N)=O)NC(=O)[C@H](CCC(N)=O)NC(=O)[C@H]([C@@H](C)CC)NC(=O)[C@H](Cc2c[nH]c3ccccc23)NC(=O)[C@H](CCCCN)NC(=O)[C@H](CCC(N)=O)NC(=O)[C@H](CCCCN)NC(=O)[C@@H]2CCCN2C(=O)[C@H](CC(=O)O)NC(=O)[C@H](CC(C)C)NC1=O [Example 162, Ac-Lys(N/-dodecanoyl)-c(Cys-Leu-Asp-Pro-Lys-Gln-Lys-Trp-Ile-Gln-Cys)-NH2] (Ac-K(Lauroyl)CLDPKQKWIQC-NH2; disulfide 2-12)	7.70	101.1	17	–	–
CC[C@H](C)[C@@H]1NC(=O)[C@H](Cc2c[nH]c3ccccc23)NC(=O)[C@H](CCCCN)NC(=O)[C@H](CCC(N)=O)NC(=O)[C@H](CCCCN)NC(=O)[C@H]2CCCN2C(=O)[C@H](CC(=O)O)NC(=O)[C@H](CC(C)C)NC(=O)[C@@H](NC(C)=O)CSSC[C@@H](C(N)=O)NC(=O)[C@H](CCC(N)=O)NC1=O [Example 30, Ac-c(Cys-Leu-Asp-D-Pro-Lys-Gln-Lys-Trp-Ile-Gln-Cys)-NH2] (Ac-CLD[dP]KQKWIQC-NH2; disulfide 1-11)	8.10	99.2	< 10	–	–
CC[C@H](C)[C@@H]1NC(=O)[C@H](Cc2c[nH]c3ccccc23)NC(=O)[C@H](CCCCN)NC(=O)[C@@H](NC(=O)[C@H](CCC(N)=O)NC(=O)[C@@H](N)CCCCN)CSSC[C@@H](C(N)=O)NC(=O)[C@H](CCC(N)=O)NC1=O [Example 48, Lys-Gln-c(Cys-Lys-Trp-Ile-Gln-Cys)-NH2] (H-KQCKWIQC-NH2; disulfide 3-8)	8.10	91.9	< 5	–	–
CC[C@H](C)[C@@H]1NC(=O)[C@H](Cc2c[nH]c3ccccc23)NC(=O)[C@H](CCCCN)NC(=O)[C@H](CCC(N)=O)NC(=O)[C@H](CCCCN)NC(=O)[C@@H]2CCCN2C(=O)[C@H](CC(=O)O)NC(=O)[C@@H](NC(=O)[C@H](CC(C)C)NC(C)=O)CSSC[C@@H](C(N)=O)NC(=O)[C@H](CCC(N)=O)NC1=O [Example 19, Ac-Leu-c(Cys-Asp-Pro-Lys-Gln-Lys-Trp-Ile-Gln-Cys)-NH2] (Ac-LCDPKQKWIQC-NH2; disulfide 2-11)	8.15	100.5	< 5	–	–
CC[C@H](C)[C@@H]1NC(=O)[C@H](Cc2c[nH]c3ccccc23)NC(=O)[C@H](CCCCN)NC(=O)[C@H](CCC(N)=O)NC(=O)[C@H](CCCCN)NC(=O)[C@@H]2CCCN2C(=O)[C@H](CC(=O)O)NC(=O)[C@H](CC(C)C)NC(=O)[C@@H](NC(C)=O)CSSC[C@@H](C(N)=O)NC(=O)[C@H](CCC(N)=O)NC1=O [Example 9, Ac-c(Cys-Leu-Asp-Pro-Lys-Gln-Lys-Trp-Ile-Gln-Cys)-NH2] (Ac-CLDPKQKWIQC-NH2; disulfide 1-11)	8.70	102.3	5.4	–	–
CC(C)OC(=O)N[C@@H](Cc1c[nH]c2ccccc12)C(=O)NCCC(=O)NC1CCC(=O)NC1=O (stereo partly drawn) [Example 179, N-(isopropoxycarbonyl)-Trp-βAla-α-aminoglutarimide]	–	–	–	546	–
CC(C)[C@@H](CC(=O)NC1CCC(=O)NC1=O)NC(=O)[C@H](Cc1c[nH]c2ccccc12)NC(=O)OC(C)(C)C (stereo partly drawn) [Example 184, BOC-Trp-βhVal-α-aminoglutarimide]	8.00	–	–	78	–
CC[C@H](C)[C@@H]1NC(=O)[C@H](Cc2c[nH]c3ccccc23)NC(=O)[C@H](CCCCN)NC(=O)[C@@H](CCC(N)=O)NC(=O)[C@H](CCCCN)NC(=O)[C@@H]2CCCN2C(=O)[C@H](CC(=O)O)NC(=O)[C@H](CC(C)C)NC(=O)[C@@H](NC(C)=O)CSSC[C@@H](C(N)=O)NC(=O)[C@H](CCC(N)=O)NC1=O [Example 28, Ac-c(Cys-Leu-Asp-Pro-Lys-D-Gln-Lys-Trp-Ile-Gln-Cys)-NH2] (Ac-CLDPK[dQ]KWIQC-NH2; disulfide 1-11)	8.40	96.9	14	–	–
CCCC(=O)N[C@@H]1CSSC[C@H](C(N)=O)NC(=O)[C@@H](CCCCN)NC(=O)[C@@H](Cc2c[nH]c3ccccc23)NC(=O)[C@@H]([C@H](C)CC)NC(=O)[C@@H](CCC(N)=O)NC1=O [Example 191, nButyryl-c(D-Cys-D-Gln-D-Ile-D-Trp-D-Lys-D-Cys)-NH2] (Butyryl-[dC][dQ][dI][dW][dK][dC]-NH2; disulfide 1-6)	8.30	–	30	–	–
N[C@@H](Cc1c[nH]c2ccccc12)C(=O)NCCC(=O)NC1CCC(=O)NC1=O (stereo partly drawn) [Example 182, Trp-βAla-α-aminoglutaramide]	8.22	–	–	54	–
CC[C@H](C)[C@@H]1NC(=O)[C@H](Cc2c[nH]c3ccccc23)NC(=O)[C@@H](CCCCN)NC(=O)[C@H](CCC(N)=O)NC(=O)[C@H](CCCCN)NC(=O)[C@@H]2CCCN2C(=O)[C@H](CC(=O)O)NC(=O)[C@H](CC(C)C)NC(=O)[C@@H](NC(C)=O)CSSC[C@@H](C(N)=O)NC(=O)[C@H](CCC(N)=O)NC1=O [Example 27, Ac-c(Cys-Leu-Asp-Pro-Lys-Gln-D-Lys-Trp-Ile-Gln-Cys)-NH2] (Ac-CLDPKQ[dK]WIQC-NH2; disulfide 1-11)	8.15	91.0	22.7	–	–
CC[C@H](C)[C@@H]1NC(=O)[C@H](Cc2c[nH]c3ccccc23)NC(=O)[C@H](CCCCN)NC(=O)[C@H](CCC(N)=O)NC(=O)[C@H](CCCCN)NC(=O)[C@@H](NC(=O)[C@@H]2CCCN2C(=O)[C@H](CC(=O)O)NC(=O)[C@H](CC(C)C)NC(C)=O)CSSC[C@@H](C(N)=O)NC(=O)[C@H](CCC(N)=O)NC1=O [Example 21, Ac-Leu-Asp-Pro-c(Cys-Lys-Gln-Lys-Trp-Ile-Gln-Cys)-NH2] (Ac-LDPCKQKWIQC-NH2; disulfide 4-11)	8.15	96.3	22	–	–
CC[C@H](C)[C@@H]1NC(=O)[C@H](Cc2c[nH]c3ccccc23)NC(=O)[C@H](CCCCN)NC(=O)[C@H](CCC(N)=O)NC(=O)[C@H](CCCCN)NC(=O)[C@@H]2CCCN2C(=O)[C@@H](NC(=O)[C@H](CC(=O)O)NC(=O)[C@H](CC(C)C)NC(C)=O)CSSC[C@@H](C(N)=O)NC(=O)[C@H](CCC(N)=O)NC1=O [Example 20, Ac-Leu-Asp-c(Cys-Pro-Lys-Gln-Lys-Trp-Ile-Gln-Cys)-NH2] (Ac-LDCPKQKWIQC-NH2; disulfide 3-11)	8.10	93.9	2.7	–	4.7
CC[C@@H](C)[C@H]1NC(=O)[C@@H](CCC(N)=O)NC(=O)[C@H](N)CSSC[C@H](C(N)=O)NC(=O)[C@@H](CCCCN)NC(=O)[C@@H](Cc2c[nH]c3ccccc23)NC1=O [Example 183, c(D-Cys-D-Gln-D-Ile-D-Trp-D-Lys-D-Cys)-NH2] (H-[dC][dQ][dI][dW][dK][dC]-NH2; disulfide 1-6)	7.70	–	–	> 1440	–
CCCCCCCCCCCC(=O)NCCCC[C@H](N)C(=O)N[C@@H](CC(=O)O)C(=O)N[C@H]1CSSC[C@@H](C(N)=O)NC(=O)[C@H](CCC(N)=O)NC(=O)[C@H]([C@@H](C)CC)NC(=O)[C@H](Cc2c[nH]c3ccccc23)NC(=O)[C@H](CCCCN)NC(=O)[C@H](CCC(N)=O)NC(=O)[C@H](CCCCN)NC(=O)[C@@H]2CCCN2C(=O)[C@H](CC(=O)O)NC(=O)[C@H](CC(C)C)NC1=O [Example 170, Lys(Nε-dodecanoyl)-Asp-c(Cys-Leu-Asp-Pro-Lys-Gln-Lys-Trp-Ile-Gln-Cys)-NH2] (H-K(Lauroyl)DCLDPKQKWIQC-NH2; disulfide 3-13)	< 6.00	−5.1	5	–	–
CC[C@@H](C)[C@H]1NC(=O)[C@@H](CCC(N)=O)NC(=O)[C@H](NC(=O)CN2CCN(CCO)CC2)CSSC[C@H](C(N)=O)NC(=O)[C@@H](CC(C)C)NC(=O)[C@@H](CC(=O)O)NC(=O)[C@H]2CCCN2C(=O)[C@@H](CCCCN)NC(=O)[C@@H](CCC(N)=O)NC(=O)[C@@H](CCCCN)NC(=O)[C@@H](Cc2c[nH]c3ccccc23)NC1=O [Example 152, HEPA-c(D-Cys-D-Gln-D-Ile-D-Trp-D-Lys-D-Gln-D-Lys-D-Pro-D-Asp-D-Leu-D-Cys)-NH2] (X1-[dC][dQ][dI][dW][dK][dQ][dK][dP][dD][dL][dC]-NH2; disulfide 1-11)	7.70	103.5	38	–	–
CC(C)(NC(=O)[C@@H](N)Cc1c[nH]c2ccccc12)C(=O)NC1CCC(=O)NC1=O (stereo partly drawn) [Example 188, Trp-Aib-aminoglutarimide]	7.18	–	–	186	–
CCCCCCCC(=O)NCCCC[C@H](NC(=O)[C@H](CC(=O)O)NC(=O)[C@H]1CSSC[C@@H](N)C(=O)N[C@H](CCC(N)=O)C(=O)N[C@H]([C@H](C)CC)C(=O)N[C@H](Cc2c[nH]c3ccccc23)C(=O)N[C@H](CCCCN)C(=O)N[C@H](CCC(N)=O)C(=O)N[C@H](CCCCN)C(=O)N2CCC[C@@H]2C(=O)N[C@H](CC(=O)O)C(=O)N[C@H](CC(C)C)C(=O)N1)C(=O)O [Example 148, c(D-Cys-D-Gln-D-Ile-D-Trp-D-Lys-D-Gln-D-Lys-D-Pro-D-Asp-D-Leu-D-Cys)-Asp-Lys(Nε-octanoyl)-OH] (H-[dC][dQ][dI][dW][dK][dQ][dK][dP][dD][dL][dC]DK(Octanoyl)-OH; disulfide 1-11)	8.22	100.9	39	–	–
